In ChEMBL document CHEMBL1130362, “Pyrrolylquinoxalinediones: The importance of pyrrolic substitution on AMPA receptor binding” (Bioorg Med Chem Lett, 1997):

Tests used:
[1] = molecular target: Glutamate receptor ionotropic AMPA (Homo sapiens, UniProt P42261+P42262+P42263+P48058)
Description: Displacement of [3H]AMPA from AMPA receptor

[2] = molecular target: Glutamate receptor ionotropic, NMDA 2C (Rattus norvegicus, UniProt Q00961); test: Ability to displace [3H]glycine from NMDA receptor
Mus musculus = test: In vivo AMPA antagonism to protect 50% animals after intraperitoneal administration of the compound; type: functional; settings: ip

Sequence of Glutamate receptor ionotropic, NMDA 2C (Q00961 whole entry): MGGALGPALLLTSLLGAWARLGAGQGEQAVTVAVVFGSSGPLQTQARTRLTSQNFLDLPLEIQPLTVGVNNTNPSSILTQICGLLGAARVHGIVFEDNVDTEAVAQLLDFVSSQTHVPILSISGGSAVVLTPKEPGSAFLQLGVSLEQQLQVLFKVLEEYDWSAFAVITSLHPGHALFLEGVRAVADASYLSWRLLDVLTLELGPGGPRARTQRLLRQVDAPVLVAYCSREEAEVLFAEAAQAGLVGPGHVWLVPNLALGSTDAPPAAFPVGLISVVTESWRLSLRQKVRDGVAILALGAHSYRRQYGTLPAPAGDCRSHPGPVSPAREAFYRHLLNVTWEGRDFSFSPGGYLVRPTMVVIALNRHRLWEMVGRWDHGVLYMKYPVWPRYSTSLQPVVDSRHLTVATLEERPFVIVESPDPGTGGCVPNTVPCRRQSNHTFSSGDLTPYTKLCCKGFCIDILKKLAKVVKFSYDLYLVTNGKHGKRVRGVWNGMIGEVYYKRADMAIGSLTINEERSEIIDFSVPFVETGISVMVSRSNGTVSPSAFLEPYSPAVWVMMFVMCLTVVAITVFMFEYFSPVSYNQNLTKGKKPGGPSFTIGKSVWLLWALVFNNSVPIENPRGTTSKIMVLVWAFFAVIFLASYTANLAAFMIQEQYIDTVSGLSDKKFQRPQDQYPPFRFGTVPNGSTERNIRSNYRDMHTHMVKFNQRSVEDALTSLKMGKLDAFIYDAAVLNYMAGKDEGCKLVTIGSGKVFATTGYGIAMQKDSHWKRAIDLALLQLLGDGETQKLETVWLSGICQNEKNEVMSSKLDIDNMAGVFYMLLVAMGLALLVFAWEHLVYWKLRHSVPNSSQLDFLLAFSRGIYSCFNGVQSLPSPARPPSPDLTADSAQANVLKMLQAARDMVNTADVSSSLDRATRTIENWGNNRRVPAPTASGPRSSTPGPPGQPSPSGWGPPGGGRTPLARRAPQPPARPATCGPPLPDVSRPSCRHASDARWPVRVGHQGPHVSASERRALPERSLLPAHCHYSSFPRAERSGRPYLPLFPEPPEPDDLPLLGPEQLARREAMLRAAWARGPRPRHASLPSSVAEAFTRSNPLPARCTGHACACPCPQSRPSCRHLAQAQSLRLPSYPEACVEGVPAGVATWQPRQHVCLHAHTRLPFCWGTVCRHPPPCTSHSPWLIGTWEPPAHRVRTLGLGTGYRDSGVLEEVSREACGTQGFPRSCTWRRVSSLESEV

CC(=O)NCc1ccn(-c2cc3c(cc2C(F)(F)F)[nH]c(=O)c(=O)n3CC(=O)O)c1
Ki [1]: 76 nM
Ki [2]: > 30000 nM
ED50 (Mus musculus): 10 mg/kg

CN(Cc1ccccc1)Cc1ccn(-c2cc3nc(O)c(O)nc3cc2[N+](=O)[O-])c1
Ki [1]: 880 nM

O=C(O)Cn1c(=O)c(=O)[nH]c2cc(C(F)(F)F)c(-n3cccc3)cc21
Ki [1]: 180 nM

NCc1ccn(-c2cc3c(cc2[N+](=O)[O-])[nH]c(=O)c(=O)n3CC(=O)O)c1
Ki [1]: 840 nM

O=C(O)Cn1c(=O)c(=O)[nH]c2cc(C(F)(F)F)c(-n3ccc(CNC(=O)Nc4ccccc4)c3)cc21
Ki [1]: 15 nM
Ki [2]: > 30000 nM
ED50 (Mus musculus): 18 mg/kg

NCc1ccn(-c2cc3nc(O)c(O)nc3cc2C(F)(F)F)c1
Ki [1]: 980 nM

O=C(O)Cn1c(=O)c(=O)[nH]c2cc(C(F)(F)F)c(-n3ccc(CNC(=O)Nc4ccc(Br)cc4)c3)cc21
Ki [1]: 4 nM
Ki [2]: > 30000 nM
ED50 (Mus musculus): 4.1 mg/kg

NCc1ccn(-c2cc3c(cc2C(F)(F)F)[nH]c(=O)c(=O)n3CC(=O)O)c1
Ki [1]: 10000 nM

O=[N+]([O-])c1cc2nc(O)c(O)nc2cc1-n1cccc1
Ki [1]: 400 nM

O=C(O)Cn1c(=O)c(=O)[nH]c2cc([N+](=O)[O-])c(-n3ccc(/C=N/OCc4ccccc4)c3)cc21
Ki [1]: 210 nM

O=C(O)Cn1c(=O)c(=O)[nH]c2cc([N+](=O)[O-])c(-n3ccc(CNC(=O)Nc4ccccc4)c3)cc21
Ki [1]: 71 nM
Ki [2]: > 30000 nM
ED50 (Mus musculus): > 30 mg/kg

O=C(O)Cn1c(=O)c(=O)[nH]c2cc(C(F)(F)F)c(-n3ccc(/C=N/OCc4ccccc4)c3)cc21
Ki [1]: 250 nM

Oc1nc2cc(-n3cccc3)c(C(F)(F)F)cc2nc1O
Ki [1]: 3000 nM

O=Cc1ccn(-c2cc3nc(O)c(O)nc3cc2C(F)(F)F)c1
Ki [1]: 650 nM

COC(=O)c1cccn1-c1cc2nc(O)c(O)nc2cc1C(F)(F)F
Ki [1]: > 25000 nM

O=C(O)Cn1c(=O)c(=O)[nH]c2cc(C(F)(F)F)c(-n3ccc(CNC(=O)NCc4ccccc4)c3)cc21
Ki [1]: 49 nM
Ki [2]: > 30000 nM
ED50 (Mus musculus): 30 mg/kg

O=C(O)Cn1c(=O)c(=O)[nH]c2cc(C(F)(F)F)c(-n3ccc(CNC(=O)Cc4ccccc4)c3)cc21
Ki [1]: 140 nM

O=C(O)Cn1c(=O)c(=O)[nH]c2cc([N+](=O)[O-])c(-n3ccc(CNC(=O)NCCc4ccncc4)c3)cc21
Ki [1]: 95 nM

O=C(O)Cn1c(=O)c(=O)[nH]c2cc(C(F)(F)F)c(-n3ccc(CNC(=O)Nc4ccc([N+](=O)[O-])cc4)c3)cc21
Ki [1]: 5 nM
Ki [2]: > 30000 nM
ED50 (Mus musculus): 5.5 mg/kg

O=C(O)c1cccn1-c1cc2nc(O)c(O)nc2cc1C(F)(F)F
Ki [1]: > 25000 nM

Cc1ccc(C)n1-c1cc2nc(O)c(O)nc2cc1[N+](=O)[O-]
Ki [1]: 20000 nM

Cc1ccc(C)n1-c1cc2nc(O)c(O)nc2cc1C(F)(F)F
Ki [1]: > 25000 nM

O=C(O)Cn1c(=O)c(=O)[nH]c2cc([N+](=O)[O-])c(-n3cccc3)cc21
Ki [1]: 70 nM

O=C(NCc1ccn(-c2cc3nc(O)c(O)nc3cc2[N+](=O)[O-])c1)Nc1ccccc1
Ki [1]: 250 nM
Ki [2]: > 30000 nM
ED50 (Mus musculus): 30 mg/kg

Cc1ccc(C)n1-c1cc2c(cc1C(F)(F)F)[nH]c(=O)c(=O)n2CC(=O)O
Ki [1]: 2000 nM

O=C(NCc1ccccc1)c1cccn1-c1cc2nc(O)c(O)nc2cc1C(F)(F)F
Ki [1]: > 25000 nM

O=C(O)Cn1c(=O)c(=O)[nH]c2cc(C(F)(F)F)c(-n3ccc(CNC(=O)Nc4ccc(C(F)(F)F)cc4)c3)cc21
Ki [1]: 5 nM
Ki [2]: > 30000 nM
ED50 (Mus musculus): 14 mg/kg

CCN(CC)Cc1ccn(-c2cc3c(cc2C(F)(F)F)[nH]c(=O)c(=O)n3CC(=O)O)c1
Ki [1]: 890 nM

O=C(O)Cn1c(=O)c(=O)[nH]c2cc(C(F)(F)F)c(-n3ccc(CNC(=O)c4ccccc4)c3)cc21
Ki [1]: 78 nM
Ki [2]: > 30000 nM
ED50 (Mus musculus): > 30 mg/kg

NCc1ccn(-c2cc3nc(O)c(O)nc3cc2[N+](=O)[O-])c1
Ki [1]: 2000 nM

O=C(O)Cn1c(=O)c(=O)[nH]c2cc([N+](=O)[O-])c(-n3ccc(CNC(=O)CCc4ccccc4)c3)cc21
Ki [1]: 500 nM

O=C(O)Cn1c(=O)c(=O)[nH]c2cc([N+](=O)[O-])c(-n3ccc(CC(=O)N4CCCCC4)c3)cc21
Ki [1]: 3000 nM

O=C(NCc1ccn(-c2cc3nc(O)c(O)nc3cc2[N+](=O)[O-])c1)Nc1ccncc1
Ki [1]: 110 nM

O=C(O)Cn1c(=O)c(=O)[nH]c2cc([N+](=O)[O-])c(-n3ccc(CNC(=O)c4ccncc4)c3)cc21
Ki [1]: 280 nM

NS(=O)(=O)c1cccc2c1c([N+](=O)[O-])cc1nc(O)c(O)nc12 [NBQX]
ED50 (Mus musculus): > 50 mg/kg

O=c1[nH]c2cc(-n3ccnc3)c([N+](=O)[O-])cc2[nH]c1=O [YM-90K]
Ki [1]: 135 nM
